In patent publication US5330992A, “1-cyclopropyl-4-pyridyl-quinolinones” (priority 1992, dated 1994):

How the values were obtained:
[1] = In vivo antitumor assay, P388(ip); details: mouse, in vivo
Text: (§1) Mice: Inbred: C3H/He and NCR-nu; and Hybrids: B6D2Fl (C57BL/6 females X DBA/2 males, CD2Fl (Balb/c females X DBS/2 males) and B6x C3fl (C57BL/6 x C3H) were bred at Wayne State University from strained obtained from the Frederick Cancer Research Facility, Frederick, Md. or purchased from commercial suppliers.
(§2) Tumors: Murine Tumor: P388 and an adriamycin-resistant (ADR) subline P388/ADR leukemia and the following transplantable solid tumors of mice were used for in Vivo testing: B16 melanoma (B16), pancreatic ductal adenocarcinoma No. 03 (Panc 03), colon adenocarcinoma No. 38 (colo 38), mammary ductal adenocarcinoma No. 16/C (Mam16) and an adriamycin-resistantsubline Mam16C/ADR. Human tumor: A single human tumor, mammary carcinoma MX-1 (MX1) was used for in vivo testing. All tumors are in the Developmental Therapeutics Program frozen tumor respository, maintained by the Biological Testing Branch, Frederick Md. Each has a detailed description, code identification number, and list of references at the National Tumor Repository. Murine tumors were maintained in the mouse strain of origin and were transplanted in the appropriate F1 hydrid (or the strain of origin) for therapy trials. Human mammary carcinoma MX-1 MX1) was maintained as a subcutaneous implant in either athymic Swiss (Cr: NIH(S)-nu) or athymic random bred (NCR-nu) mice and transplanted in NCR-nu for therapy trials.
(§3) For P388 and P388/ADR leukemia studies the tumor cells were implanted either IP or intravenously (IV) on day zero and treatment was started on day one. For B16 melanoma (B16) studies, the tumor cells were implanted IP on day zero and treatment was started on day one. Tirered controls were also included to facilitate the calculation of tumor cell kill. For mammary carcinoma MX-1 studies, tumors were implanted with 1) subcutaneously (sc) (14-mg fragment of s.c. donor tumor) in the axillary region or 2) under the subrenal capsule (src) (10×10×10 ocular micrometer unit fragment of s.c. donor tumor). Treatment started on the day after subrenal capsule tumor implant or when the subcutaneous tumor implant had reached 100-700 mg.
(§4) Quantitative end points used assess antitumor activity included % Increased Life Span (% ILS), Tumor Cell Kill (Log10 kill), and Tumor Growth Inhibition (T/C). Long Term Survivors (45 or 60 day) were excluded from calculations of % ILS and Tumor Cell Kill.
(§5) Endpoints were calculated as follows: % ILS [formula] where Dt is the median day of death for treated and Dc is the median day of death for control groups. A % ILS ≥20 or ≥25 for P388 and B16 intraperitoneal models, respectively, is indicative of a significant degree of antitumor activity. A % ILS ≥75 or ≥50 for P388 and B16 intraperitoneal models, respectively, is indicative of a high degree of antitumor activity and is the level used by National Cancer Institute to justify further development if other requirements are met (termed DN-2 level activity). Minimum quantitative activity limits for additional P388 models (e.g. P388/ADR and P388, IJV) have not been defined. However, the activity limits specified for the intraperitoneal models may be applied as in the majority of instances these models are found to be signficantly […] challenging.
(§6) The log10 cell kill was calculated from the following formula: [formula] where T-C is the tumor difference in the median day of death between the treated (T) and the control (C) groups and Td is the tumor doubling time (in days), the latter estimated from the best fit straight line from a log-linear growth plot of the control-group tumors in exponential growth. The conversion of the T-C values to log10 cell kill is possible because the Td for tumors regrowing post-treatment approximated the Td values of the tumors in untreated control mice.

[2] = test system: P388 leukemia; experiment: In vivo antitumor assay, P388(ip); details: P388(ip), qd 1,5,9; for ILS %: increased life span; for LOG KILL: log10 cell kill
Text: as §1, §2, §3, §4, §5, §6

[3] = In vivo antitumor assay, Colo38(sc); design: species or system mouse; details: mouse, in vivo, drug route iv, Ex 26 qd 3-5 bid 6-11, Ex 30 and 33 qd 3-11
Text: as §1, §2
(§7) Chemotherapy: For pancreatic ductal adenocarcinoma No. 3, colon adenocarcinoma No. 38 (colo38), lung carcinoma No. 12 (LC12) and both adriamycin-sensitive (RP) and -resistant ADR) mammary ductal adenocarcinoma No. 16 (Mam16) tumors, the following methods were used to help ensure a more uniform tumor burden per mouse (thus reducing the requirement for greater numbers of mice per group), bilateral tumor implants were used. The animals necessary to begin an experiment were pooled, implanted bilaterally s.c. on day zero with 30-60-mg tumor fragments using a 12-gauge trocar, and again pooled before randomization to the various treatment and control groups. Chemotherapy was started within three days after tumor implantation while the number of cells per mouse was relatively small (1×10^7 […]).
as §4
(§8) Tumors were measured with a caliper once or twice weekly (as needed) until either tumors exceeded 1600 mg or cure was assured. Tumor weights were estimated from two-dimensional measurements: Tumor Weight (mg)=(a×b^2) / 2, where a and b are the tumor length and width (nun) respectively. Measurements were carried out simultaneously in both treatment and control groups. When the control group tumors reached approximately 750-1500 mg in size (median of group), the median tumor weight of each group was determined (including zeros). The T/C value in percent is an indiation of antitumor effectiveness. The % T/C was calculated from the following formula for solid murine tumor models: [formula] where T and C are median tumor weights of the treatment and control groups, respectively. A T/C equal to or less than 42% is considered significant antitumor activity. A T/C value <10% is indicative of a high degree of antitumor activity and is the level used by National Cancer Institute to justify further development if other requirements are met (termed DN-2 level activity). By convention the T/C value for the mammary carcinoma MX-1 models is calculated by the parameter of change in tumor weight. The % T/C was calculated from the following formula for MX-1 models [formula] where ΔT and ΔC are the change in mean tumor weight of the test and control groups, respectively, and T (initial) is the initial mean tumor weight of the test group. […] A reproducible % T/C ≤10 is considered significant activity.

[4] = test system: colon adenocarcinoma No. 38 (colo 38); experiment: In vivo antitumor assay, Colo38(sc); design: species or system mouse; details: drug route iv, Ex 26 qd 3-5 bid 6-11, Ex 30 and 33 qd 3-11
Text: as §1, §2, §7, §4, §8

[5] = In vivo antitumor assay, MX1(src); design: species or system human tumor in athymic NCR-nu mice; details: mouse, in vivo, drug route ip, qd 1,5,9
Text: as §1, §2, §3, §4, §8

[6] = test system: human mammary carcinoma MX-1 (MX1); experiment: In vivo antitumor assay, MX1(src); design: species or system human tumor in athymic NCR-nu mice; details: drug route ip, qd 1,5,9, change in mean tumor weight
Text: as §1, §2, §3, §4, §8

[7] = P388(ip), drug route ip, qd 1,5,9
[8] = P388(ip), drug route iv, qd 1,5,9

Row | SMILES | MTD [1, 7] | MTD [1, 8] | ILS % ([2]; drug route ip) | LOG KILL ([2]; drug route ip) | ILS % ([2]; drug route iv) | LOG KILL ([2]; drug route iv) | MTD [3] | T/C % [4] | MTD [5] | T/C % [6] | MTD ([1]; iv)
1 | Cc1cc(-c2c(F)cc3c(=O)c(Cc4c(O)cccc4O)cn(C4CC4)c3c2F)cc(C)n1 [Example 26, 1-Cyclopropyl-6,8-difluoro-7-[2,6-dimethyl-4-pyridinyl]-3-[2,6-dihydroxyphenylmethyl]-1,4-dihydroquinoline-4-one] | 12 mg/kg | 15 mg/kg | 100% | 7.3 | 80% | 5.8 | 30 mg/kg | 46% | 8.1 mg/kg | 20% | –
2 | Cc1cc(-c2c(F)cc3c(=O)c(Cc4ccccc4O)cn(C4CC4)c3c2F)cc(C)n1 [Example 30] | 456 mg/kg | 120 mg/kg | 120% | 8.8 | 20% | 1.5 | 148 mg/kg | 42% | 304 mg/kg | 6% | –
3 | Cc1cc(-c2c(F)cc3c(=O)c(Cc4ccc(O)cc4O)cn(C4CC4)c3c2F)cc(C)n1 [Example 33] | 19 mg/kg | – | 50% | 3.6 | 50% | 3.6 | 33 mg/kg | > 100% | 19 mg/kg | 8% | 37 mg/kg
